Consider 28 compounds from patent publication US20080004253A1, “Thiazolopyrimidine modulators of TRPV1” (priority 2006, published 2008).

One test deals with T1, rat TRPV1 (Rattus norvegicus, UniProt O35433).
T1 construct: expressed in transfected cells; host or cells: HEK293 (rTRPV1/HEK293), geneticin selection
The test can be described thus: Functional assay: block of capsaicin-induced Ca2+ influx, rat assay (rTRPV1/HEK293, FLIPR). The format is cell-based. Conditions: rTRPV1/HEK293 cells, capsaicin challenge, Fluo-3 fluorescence; mean; > value = solubility limit in assay medium. The method, boiled down:
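Compounds, as free base or TFA salt, tested from 10 μM in three-fold steps on rTRPV1-transfected HEK293 cells, with 30 min preincubation in low-calcium (20 μM) buffer. Capsaicin-evoked Ca2+ influx measured by FLIPR fluo3 signal before and 100 s after addition. Averaged IC50 from non-linear fits.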

The next test addresses T2, human TRPV1 (Homo sapiens, UniProt Q8NER1).
T2 construct: expressed in transfected cells; host or cells: HEK293 (hTRPV1/HEK293), zeocin selection
The test can be described thus: Functional assay: block of capsaicin-induced Ca2+ influx, human assay (hTRPV1/HEK293, FLIPR). Conditions: hTRPV1/HEK293 cells, 150 nM capsaicin challenge, Fluo-3 fluorescence; mean; > value = solubility limit in assay medium. The format is cell-based. The method in brief:
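HEK293 cells stably expressing human TRPV1, fluo3-loaded, preincubated 30 min with compound (serial 3-fold dilutions from 10 μM, duplicate) in 20 μM Ca2+ buffer. Capsaicin response taken as fluo3 fluorescence change before vs 100 s after agonist; IC50 by non-linear regression, mean values; free base or TFA salt.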

pIC50: −log10 of the molar value.

T2 sequence (Q8NER1 whole entry): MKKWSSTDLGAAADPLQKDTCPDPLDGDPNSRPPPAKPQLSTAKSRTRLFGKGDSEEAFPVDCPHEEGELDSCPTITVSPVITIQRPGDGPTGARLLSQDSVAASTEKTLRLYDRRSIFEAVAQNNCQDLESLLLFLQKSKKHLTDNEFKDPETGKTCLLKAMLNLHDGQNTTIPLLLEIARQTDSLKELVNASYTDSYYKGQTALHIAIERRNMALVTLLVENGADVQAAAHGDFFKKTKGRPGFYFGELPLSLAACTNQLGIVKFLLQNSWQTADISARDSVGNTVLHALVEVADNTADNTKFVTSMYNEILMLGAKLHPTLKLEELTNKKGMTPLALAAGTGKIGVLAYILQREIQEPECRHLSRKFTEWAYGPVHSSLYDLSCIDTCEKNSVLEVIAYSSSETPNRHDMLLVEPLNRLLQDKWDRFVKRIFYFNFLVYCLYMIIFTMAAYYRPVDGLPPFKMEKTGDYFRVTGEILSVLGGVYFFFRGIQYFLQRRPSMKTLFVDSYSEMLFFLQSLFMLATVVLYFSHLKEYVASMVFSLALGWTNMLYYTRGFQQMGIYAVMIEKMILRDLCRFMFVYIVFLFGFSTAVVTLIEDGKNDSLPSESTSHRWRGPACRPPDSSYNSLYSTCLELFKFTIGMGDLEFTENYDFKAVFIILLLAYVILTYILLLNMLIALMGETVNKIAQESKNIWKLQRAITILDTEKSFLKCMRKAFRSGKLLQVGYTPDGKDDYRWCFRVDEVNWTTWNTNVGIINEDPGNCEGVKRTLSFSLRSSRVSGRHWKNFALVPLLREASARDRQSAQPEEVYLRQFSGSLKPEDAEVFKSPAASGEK
T1 sequence (O35433 whole entry): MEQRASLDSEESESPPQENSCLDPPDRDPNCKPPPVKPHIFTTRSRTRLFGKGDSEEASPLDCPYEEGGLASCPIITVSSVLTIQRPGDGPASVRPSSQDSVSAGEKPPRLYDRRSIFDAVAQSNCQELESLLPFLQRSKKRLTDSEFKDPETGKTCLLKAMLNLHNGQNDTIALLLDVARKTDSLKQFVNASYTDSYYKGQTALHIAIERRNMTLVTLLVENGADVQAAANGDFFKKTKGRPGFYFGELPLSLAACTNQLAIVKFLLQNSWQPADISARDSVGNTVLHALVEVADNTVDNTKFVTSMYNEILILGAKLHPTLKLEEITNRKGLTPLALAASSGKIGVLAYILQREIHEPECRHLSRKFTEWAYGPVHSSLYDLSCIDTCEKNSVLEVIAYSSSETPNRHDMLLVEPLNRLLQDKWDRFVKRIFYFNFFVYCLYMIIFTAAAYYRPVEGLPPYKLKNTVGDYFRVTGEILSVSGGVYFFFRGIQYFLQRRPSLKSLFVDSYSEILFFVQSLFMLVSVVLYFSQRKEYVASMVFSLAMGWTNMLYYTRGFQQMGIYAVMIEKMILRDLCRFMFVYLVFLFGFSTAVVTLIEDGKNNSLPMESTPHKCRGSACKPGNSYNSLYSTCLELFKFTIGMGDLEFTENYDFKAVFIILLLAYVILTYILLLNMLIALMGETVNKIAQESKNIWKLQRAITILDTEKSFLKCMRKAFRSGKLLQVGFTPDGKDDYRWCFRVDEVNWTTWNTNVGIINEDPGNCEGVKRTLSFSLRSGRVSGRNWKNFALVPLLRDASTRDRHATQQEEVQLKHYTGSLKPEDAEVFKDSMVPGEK

As to `Cc1nc(Nc2ccc(S(C)(=O)=O)cc2)c2nc(Nc3c(Cl)cccc3Cl)sc2n1` [Example 78, N^2-(2,6-Dichloro-phenyl)-N^7-(4-methanesulfonyl-phenyl)-5-methyl-thiazolo[5,4-d]pyrimidine-2,7-diamine], the negative-log IC50 (pIC50) against rat TRPV1 is 9.00; against human TRPV1, 8.70.
Turning to `CC(C)CNc1nc(Nc2ccc(C(F)(F)F)cc2)c2nc(Nc3c(Cl)cccc3Cl)sc2n1` [Example 79, N^2-(2,6-Dichloro-phenyl)-N^5-isobutyl-N^7-(4-trifluoromethyl-phenyl)-thiazolo[5,4-d]pyrimidine-2,5,7-triamine], the pIC50 was 9.00 on rat TRPV1 and 8.70 against human TRPV1.
Taken in the same sequence, the figures for `O=S(=O)(c1ccc(Nc2ncnc3sc(Nc4c(Cl)cccc4Cl)nc23)cc1)N1CCOCC1` [Example 80, N^2-(2,6-Dichloro-phenyl)-N^7-[4-(morpholine-4-sulfonyl)-phenyl]-thiazolo[5,4-d]pyrimidine-2,7-diamine] were 9.00 and 8.70.
Turning to `Cc1nc(Nc2ccc(S(=O)(=O)N(C)C)cc2)c2nc(Nc3c(Cl)cccc3Cl)sc2n1` [Example 81, 4-[2-(2,6-Dichloro-phenylamino)-5-methyl-thiazolo[5,4-d]pyrimidin-7-ylamino]-N,N-dimethyl-benzenesulfonamide], the pIC50 at rat TRPV1 and against human TRPV1 was 8.70 throughout.
For the compound `CS(=O)(=O)c1ccc(Nc2ncnc3sc(Nc4c(Cl)cccc4Cl)nc23)cc1F` [Example 82, N^2-(2,6-Dichloro-phenyl)-N^7-(3-fluoro-4-methanesulfonyl-phenyl)-thiazolo[5,4-d]pyrimidine-2,7-diamine], the values for the negative logarithm of the IC50 (pIC50) on rat TRPV1 and against human TRPV1 were 9.00 and 8.30, respectively.
As to `Cc1ccccc1Nc1nc2c(Nc3ccc(S(=O)(=O)N4CCCC4)cc3)ncnc2s1` [Example 83, N^7-[4-(Pyrrolidine-1-sulfonyl)-phenyl]-N^2-o-tolyl-thiazolo[5,4-d]pyrimidine-2,7-diamine], the pIC50 on rat TRPV1 was 8.70; against human TRPV1, 8.52.
As to `Cc1nc(Nc2ccc(C(C)C)cc2)c2nc(Nc3c(Cl)cccc3Cl)sc2n1` [Example 84, N^2-(2,6-Dichloro-phenyl)-N^7-(4-isopropyl-phenyl)-5-methyl-thiazolo[5,4-d]pyrimidine-2,7-diamine], the negative-log IC50 (pIC50) against rat TRPV1 is 8.70; at human TRPV1, 8.40.
On to `Cc1nc(Nc2ccc(S(=O)(=O)N(C)C)cc2)c2nc(Nc3c(C)cccc3C)sc2n1` [Example 85, 4-[2-(2,6-Dimethyl-phenylamino)-5-methyl-thiazolo[5,4-d]pyrimidin-7-ylamino]-N,N-dimethyl-benzenesulfonamide], for which the pIC50 against rat TRPV1 is 8.52; against human TRPV1, 8.40.
Turning to `CC(=O)c1ccc(Nc2nc(C)nc3sc(Nc4c(Cl)cccc4Cl)nc23)cc1` [Example 86, 1-{4-[2-(2,6-Dichloro-phenylamino)-5-methyl-thiazolo[5,4-d]pyrimidin-7-ylamino]-phenyl}-ethanone], the pIC50 against rat TRPV1 is 8.52; against human TRPV1, 8.30.
The matching figures for `CS(=O)(=O)c1ccc(Nc2ncnc3sc(Nc4c(Cl)cccc4Cl)nc23)cc1` [Example 87, N^2-(2,6-Dichloro-phenyl)-N^7-(4-methanesulfonyl-phenyl)-thiazolo[5,4-d]pyrimidine-2,7-diamine]: 8.40 and 8.22.
With `CN1CCN(S(=O)(=O)c2ccc(Nc3ncnc4sc(Nc5c(Cl)cccc5Cl)nc34)cc2)CC1` [Example 88, N^2-(2,6-Dichloro-phenyl)-N^7-[4-(4-methyl-piperazine-1-sulfonyl)-phenyl]-thiazolo[5,4-d]pyrimidine-2,7-diamine], the figures for the pIC50 on rat TRPV1 and at human TRPV1 were 8.40 and 8.15, respectively.
In the case of `Cc1nc(Nc2ccc(S(=O)(=O)C(F)(F)F)cc2)c2nc(Nc3c(C)cccc3C)sc2n1` [Example 90, N^2-(2,6-Dimethyl-phenyl)-5-methyl-N^7-(4-trifluoromethanesulfonyl-phenyl)-thiazolo[5,4-d]pyrimidine-2,7-diamine], the negative-log IC50 (pIC50) was 7.82 at rat TRPV1 and 8.15 against human TRPV1.
As to `Cc1cccc(C)c1Nc1nc2c(Nc3ccc(S(=O)(=O)N4CCOCC4)cc3)ncnc2s1` [Example 91, N^2-(2,6-Dimethyl-phenyl)-N^7-[4-(morpholine-4-sulfonyl)-phenyl]-thiazolo[5,4-d]pyrimidine-2,7-diamine], the negative-log IC50 (pIC50) on rat TRPV1 is 9.00; on human TRPV1, 8.15.
For `Cc1nc(Nc2ccc(S(=O)(=O)N3CCCC3)cc2)c2nc(Nc3c(C)cccc3C)sc2n1` [Example 92, N^2-(2,6-Dimethyl-phenyl)-5-methyl-N^7-[4-(pyrrolidine-1-sulfonyl)-phenyl]-thiazolo[5,4-d]pyrimidine-2,7-diamine], the negative-log IC50 (pIC50) against rat TRPV1 was 8.70; at human TRPV1, 8.10.
For `Cc1nc(Nc2ccc(S(=O)(=O)C(C)C)cc2)c2nc(Nc3c(Cl)cccc3Cl)sc2n1` [Example 93, N^2-(2,6-Dichloro-phenyl)-5-methyl-N^7-[4-(propane-2-sulfonyl)-phenyl]-thiazolo[5,4-d]pyrimidine-2,7-diamine], the pIC50 at rat TRPV1 is 8.00; against human TRPV1, 8.10.
As to `CSc1ccc(Nc2nc(C)nc3sc(Nc4c(Cl)cccc4Cl)nc23)cc1` [Example 94, N^2-(2,6-Dichloro-phenyl)-5-methyl-N^7-(4-methylsulfanyl-phenyl)-thiazolo[5,4-d]pyrimidine-2,7-diamine], the pIC50 is 8.52 against rat TRPV1 and 8.10 against human TRPV1.
For the compound `Cc1nc(Nc2ccc(S(C)(=O)=O)cc2)c2nc(Nc3c(C)cccc3C)sc2n1` [Example 95, N^2-(2,6-Dimethyl-phenyl)-N^7-(4-methanesulfonyl-phenyl)-5-methyl-thiazolo[5,4-d]pyrimidine-2,7-diamine], the results for the pIC50 on rat TRPV1 and on human TRPV1 were 8.15 and 8.00, respectively.
Consider `Cc1nc(Nc2ccc(C#N)cc2)c2nc(Nc3c(Cl)cccc3Cl)sc2n1` [Example 96, 4-[2-(2,6-Dichloro-phenylamino)-5-methyl-thiazolo[5,4-d]pyrimidin-7-ylamino]-benzonitrile], for which the pIC50 was 8.05 on rat TRPV1 and 7.92 at human TRPV1.
Take `Cc1cccc(C)c1Nc1nc2c(Nc3ccc(S(C)(=O)=O)c(F)c3)ncnc2s1` [Example 97, N^2-(2,6-Dimethyl-phenyl)-N^7-(3-fluoro-4-methanesulfonyl-phenyl)-thiazolo[5,4-d]pyrimidine-2,7-diamine]: the pIC50 on rat TRPV1 is 7.49; against human TRPV1, 7.92.
Consider `Cc1cccc(C)c1Nc1nc2c(Nc3ccc(S(=O)(=O)N(C)C)cc3)ncnc2s1` [Example 98, 4-[2-(2,6-Dimethyl-phenylamino)-thiazolo[5,4-d]pyrimidin-7-ylamino]-N,N-dimethyl-benzenesulfonamide], for which the figures for the negative-log IC50 (pIC50) against rat TRPV1 and against human TRPV1 were 8.15 and 7.82, respectively.
As for `Cc1cccc(C)c1Nc1nc2c(Nc3ccc(S(=O)(=O)C(F)(F)F)cc3)ncnc2s1` [Example 99, N^2-(2,6-Dimethyl-phenyl)-N^7-(4-trifluoromethanesulfonyl-phenyl)-thiazolo[5,4-d]pyrimidine-2,7-diamine], the values for the pIC50 on rat TRPV1 and against human TRPV1 were 8.40 and 7.77, respectively.
Consider `FC(F)(F)c1ccc(Nc2nc(NCCCN3CCOCC3)nc3sc(Nc4c(Cl)cccc4Cl)nc23)cc1` [Example 100, N^2-(2,6-Dichloro-phenyl)-N^5-(3-morpholin-4-yl-propyl)-N^7-(4-trifluoromethyl-phenyl)-thiazolo[5,4-d]pyrimidine-2,5,7-triamine], for which the negative logarithm of the IC50 (pIC50) was 8.22 against rat TRPV1 and 7.77 against human TRPV1.
`CC(C)Nc1nc(Nc2ccc(C(F)(F)F)cc2)c2nc(Nc3c(Cl)cccc3Cl)sc2n1` [Example 101, N^2-(2,6-Dichloro-phenyl)-N^5-isopropyl-N^7-(4-trifluoromethyl-phenyl)-thiazolo[5,4-d]pyrimidine-2,5,7-triamine]: the negative logarithm of the IC50 (pIC50) is 7.92 on rat TRPV1 and 7.74 on human TRPV1.
For the compound `Cc1nc(Nc2ccc(S(=O)(=O)C(C)C)cc2)c2nc(Nc3c(C)cccc3C)sc2n1` [Example 102, N^2-(2,6-Dimethyl-phenyl)-5-methyl-N^7-[4-(Propane-2-sulfonyl)-phenyl]-thiazolo[5,4-d]pyrimidine-2,7-diamine], the negative logarithm of the IC50 (pIC50) is 7.72 at rat TRPV1 and 7.74 against human TRPV1.
For the compound `Cc1nc(Nc2ccc(SC(C)C)cc2)c2nc(Nc3c(Cl)cccc3Cl)sc2n1` [Example 103, N^2-(2,6-Dichloro-phenyl)-N^7-(4-isopropylsulfanyl-phenyl)-5-methyl-thiazolo[5,4-d]pyrimidine-2,7-diamine], the values for the pIC50 against rat TRPV1 and against human TRPV1 were 7.48 and 7.70, respectively.
As to `Cc1cccc(C)c1Nc1nc2c(Nc3ccc(S(=O)(=O)N4CCCC4)cc3)ncnc2s1` [Example 104, N^2-(2,6-Dimethyl-phenyl)-N^7-[4-(pyrrolidine-1-sulfonyl)-phenyl]-thiazolo[5,4-d]pyrimidine-2,7-diamine], the pIC50 is 8.15 against rat TRPV1 and 7.66 against human TRPV1.
Take `Cc1nc(Nc2ccc(SC(C)C)cc2)c2nc(Nc3c(C)cccc3C)sc2n1` [Example 106, N^2-(2,6-Dimethyl-phenyl)-N^7-(4-isopropylsulfanyl-phenyl)-5-methyl-thiazolo[5,4-d]pyrimidine-2,7-diamine]: the negative logarithm of the IC50 (pIC50) on rat TRPV1 was 7.59; on human TRPV1 it was 7.60.
In the case of `Cc1nc(Nc2ccc3c(c2)N(C)CCC3(C)C)c2nc(Nc3c(Cl)cccc3Cl)sc2n1` [Example 107, N^2-(2,6-Dichloro-phenyl)-5-methyl-N^7-(1,4,4-trimethyl-1,2,3,4-tetrahydro-quinolin-7-yl)-thiazolo[5,4-d]pyrimidine-2,7-diamine], the pIC50 was 8.70 on rat TRPV1 and 7.60 against human TRPV1.

A word on the pIC50: it is −log10 of the IC50, conventionally taken in molar units. Lower therefore signals a large IC50.
